Some test systems named below: OVCAR-5 ovarian; HOP-62 NSCLC; MOLT-4 leukemia; M14 melanoma; UACC-257 melanoma; UO-31 renal; CCRF-CEM leukemia; SW-620 colon; HOP-92 NSCLC.
Assay in all cases: DTP human tumour cell line panel, 48 h

Each structure is given as a SMILES string. Values joined by “and” are separate entries in the source; they are usually repeats but may differ in a detail not shown here. Identical values can stand only once.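 Following 48 hours of exposure in 96-well plates, responses at five concentrations were used to interpolate endpoints linearly. The concentration for 50% growth inhibition is given as GI50. TGI is the concentration that stops growth completely.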

Broadly, the TGI is the concentration at which net growth stops. Usually GI50 stands for the concentration giving 50% growth inhibition.

Consider `Cc1cc(C)nc(NS(=O)(=O)c2ccc(Nc3c4ccccc4nc4c(C(=O)Nc5ccc(S(=O)(=O)N=C(N)N)cc5)ccc(Cl)c34)cc2)n1`, for which the concentration for total growth inhibition (TGI) in the test with OVCAR-5 ovarian is > 100 µM; with HOP-62 NSCLC, 54.8 µM; with MOLT-4 leukemia, 64.8 µM; in the test on M14 melanoma, > 100 µM; in the test on UACC-257 melanoma, > 100 µM; with UO-31 renal, 73.9 µM.

Take `O=C(O)CSc1n[nH]c(-c2ccc(O)cc2)n1`: the total growth inhibition concentration (TGI) in the test on OVCAR-5 ovarian, with CCRF-CEM leukemia, in the test on HOP-62 NSCLC, in the test with MOLT-4 leukemia, with M14 melanoma and in the test on UACC-257 melanoma was > 100 µM throughout. The TGI in the test on SW-620 colon, in the test with HOP-92 NSCLC and with UO-31 renal was > 100 µM each time.

For the molecule `N#Cc1cn(C2OC(CO)C(O)C2O)c2ncnc(N)c12` (configuration not stated), the GI50 in the test with OVCAR-5 ovarian was 0.238 µM; in the test with CCRF-CEM leukemia, 0.045 µM; in the test with HOP-62 NSCLC, 0.0533 µM; with MOLT-4 leukemia, 0.045 µM and 0.0319 µM; with SW-620 colon it was < 0.0145 µM; in the test on HOP-92 NSCLC, 0.000461 µM. Also, the 50% growth inhibitory concentration (GI50) with UO-31 renal is 0.0658 µM and 0.0459 µM and 0.0271 µM. Further, the TGI is 0.216 µM and 0.84 µM and 0.0961 µM in the test on CCRF-CEM leukemia; 21.9 µM in the test with M14 melanoma; > 100 µM with SW-620 colon; 0.665 µM and 0.182 µM in the test with HOP-92 NSCLC; 0.665 µM and 0.819 µM and 1.98 µM in the test with UO-31 renal.

As for `C=C1C(=O)O[C@H]2[C@H]1CC/C(COC(=O)c1cc3cc(F)ccc3[nH]1)=C\CC[C@@]1(C)O[C@@H]21`, the GI50 in the test with OVCAR-5 ovarian is 1.77 µM; in the test on CCRF-CEM leukemia it was 0.919 µM; in the test with HOP-62 NSCLC, 2.92 µM; in the test on MOLT-4 leukemia, 2.26 µM; in the test on M14 melanoma it was 1.89 µM; in the test on UACC-257 melanoma, 2.28 µM. In addition, the GI50 with SW-620 colon was 1.43 µM; with HOP-92 NSCLC, 1.38 µM; in the test on UO-31 renal, 1.2 µM. The concentration for total growth inhibition (TGI) in the test on OVCAR-5 ovarian stood at 4.09 µM; in the test with CCRF-CEM leukemia, 6.52 µM; in the test on HOP-62 NSCLC, 14.9 µM; in the test with MOLT-4 leukemia, 9.23 µM; with M14 melanoma, 4.11 µM; in the test with UACC-257 melanoma, 4.26 µM. Also, the total growth inhibition concentration (TGI) is 4.09 µM with SW-620 colon, 3.21 µM with HOP-92 NSCLC and 2.54 µM in the test on UO-31 renal.

For the molecule `O=C(Oc1ccc(Cl)cc1Cl)c1ccccc1Nc1ccnc(C(F)(F)F)c1`, the GI50 with OVCAR-5 ovarian is 7.9 µM; with CCRF-CEM leukemia, 3.54 µM; with MOLT-4 leukemia, > 100 µM; with M14 melanoma it was 1.92 µM; with UACC-257 melanoma, 10.6 µM; with SW-620 colon, 4.59 µM. For the same molecule, the GI50 with HOP-92 NSCLC is 11.6 µM; with UO-31 renal, 18.1 µM. In addition, the TGI was 22 µM in the test with OVCAR-5 ovarian; > 100 µM in the test on CCRF-CEM leukemia; > 100 µM with MOLT-4 leukemia; 4.93 µM in the test with M14 melanoma; 26 µM in the test with UACC-257 melanoma; 32.5 µM in the test on SW-620 colon. In addition, the TGI with HOP-92 NSCLC is 43.4 µM; in the test with UO-31 renal it was > 100 µM.

In the case of `CC1OC(OCC2OC(Oc3c(-c4ccc(O)cc4)oc4cc(O)cc(O)c4c3=O)C(OC3OCC(O)(CO)C3O)C(O)C2O)C(O)C(O)C1O` (configuration not stated), the total growth inhibition concentration (TGI) with OVCAR-5 ovarian, in the test with CCRF-CEM leukemia, in the test on HOP-62 NSCLC, in the test on MOLT-4 leukemia, in the test with M14 melanoma and with UACC-257 melanoma was > 100 µM throughout. Also, the TGI in the test on SW-620 colon, in the test with HOP-92 NSCLC and in the test with UO-31 renal was > 100 µM in each case.

Regarding `Cc1cnc2c(C)ccc([N+](=O)[O-])c2c1NCCCN(C)C`, the TGI with OVCAR-5 ovarian, with CCRF-CEM leukemia, in the test on HOP-62 NSCLC, in the test with MOLT-4 leukemia, in the test with M14 melanoma and with UACC-257 melanoma was > 100 µM each time. Also, the TGI in the test on SW-620 colon and in the test with UO-31 renal was > 100 µM throughout.

As for `CC[C@H](C)N(CCN)C(=O)c1cc2ccccc2c(-c2ccccc2Cl)n1`, the TGI in the test with OVCAR-5 ovarian is 27.9 µM; in the test on CCRF-CEM leukemia it was 15.7 µM; in the test on HOP-62 NSCLC, 33.3 µM; with MOLT-4 leukemia, 24.9 µM; with M14 melanoma it was 44.8 µM; in the test with UACC-257 melanoma, 3.37 µM. Further, the concentration for total growth inhibition (TGI) in the test with SW-620 colon was determined as 30 µM; in the test on UO-31 renal, 25.3 µM.

On to `O=C(c1ccccc1)C(C(=O)c1ccccc1)C1(O)C(=O)c2ccccc2C1=O`, for which the concentration for total growth inhibition (TGI) in the test on OVCAR-5 ovarian is > 100 µM; with CCRF-CEM leukemia, 83 µM; with HOP-62 NSCLC it was > 100 µM; in the test on MOLT-4 leukemia it was > 100 µM; in the test on M14 melanoma, > 100 µM; in the test with UACC-257 melanoma, > 100 µM. For the same molecule, the total growth inhibition concentration (TGI) was > 100 µM with SW-620 colon, 64.6 µM in the test on HOP-92 NSCLC and > 100 µM with UO-31 renal.

Regarding `CCOc1ccccc1NC(=O)C(=O)CC(=O)c1c(C)n([O-])c2ccccc2[n+]1=O`, the total growth inhibition concentration (TGI) in the test with OVCAR-5 ovarian, with CCRF-CEM leukemia, in the test with HOP-62 NSCLC, in the test on MOLT-4 leukemia, in the test with M14 melanoma and with UACC-257 melanoma was > 100 µM throughout. Besides, the TGI with SW-620 colon, with HOP-92 NSCLC and in the test on UO-31 renal was > 100 µM each time.

`O=C1CC(O)C=C1Nc1ccc(Cl)cc1` (configuration not stated): the TGI in the test with OVCAR-5 ovarian, with CCRF-CEM leukemia, with HOP-62 NSCLC, in the test on MOLT-4 leukemia, with M14 melanoma and with UACC-257 melanoma was > 100 µM in each case. In addition, the total growth inhibition concentration (TGI) in the test with SW-620 colon, in the test with HOP-92 NSCLC and in the test with UO-31 renal was > 100 µM in each case.

On to `O=C1C(=O)N(C(=O)c2ccc(Cl)c(Cl)c2)c2ccccc21`, for which the concentration for total growth inhibition (TGI) in the test on OVCAR-5 ovarian, with CCRF-CEM leukemia, with MOLT-4 leukemia, in the test on M14 melanoma, with SW-620 colon and with UO-31 renal was > 100 µM in each case.

As to `O=C(O)c1c(-c2cccc3ccccc23)sc(-c2cccc3ccccc23)c1C(=O)O`, the TGI in the test on OVCAR-5 ovarian was > 100 µM; with CCRF-CEM leukemia, > 100 µM; in the test on MOLT-4 leukemia, 85.7 µM; with M14 melanoma it was > 100 µM; with UACC-257 melanoma, > 100 µM; in the test with SW-620 colon, > 100 µM. Besides, the TGI in the test on HOP-92 NSCLC and in the test with UO-31 renal was > 100 µM in each case.

The record behind these values is PubChem BioAssay (NCI).
